The text below walks through data of patent US6858574B2, “Process for making perfume containing surfactant compositions having perfume burst when diluted” (Unilever Home & Personal Care USA, division of Conopco, Inc., priority 2002, dated 2005).

Series [1] in a line: Fragrance burst (perfume headspace) of single perfumes in 5% sodium laurate shower product diluted through the CMC. The conditions noted are these: diluted through the CMC (FIG. 3). It is filed as physicochemical. How it is done:
It is precisely this “burst” or increase in headspace (e.g., from start of dilution up until CMC) and methods for determining in what compositions it will occur that is the basis of the subject invention.
Several different fragrance molecules were tested experimentally to validate the theoretical predictions. Limonene, p-cymene, α-pinene, tetrahydrolinolool, α-ionone, γ-methyl ionone, benzyl acetate and 2-phenoxylethanol were tested in a 5% sodium laurate shower product and diluted a number of times through the CMC (FIG. 3).

Series [2] can be described thus: GC headspace vs dilution of components of a perfume mixture in 5 wt. % sodium laurate formulation. It is filed as physicochemical. The conditions noted are these: twelve-component perfume mixture, 5 wt. % sodium laurate (FIG. 9). As for the experimental part:
A typical fully formulated perfume used in a commercial product, e.g., personal wash formulation, usually is a multi-component composition in which the properties of each perfume component can vary dramatically. A typical perfume mixture in a 5 wt. % sodium laurate formulation was tested for its “perfume burst” behaviour upon dilution. […] Each component has a unique dilution curve (GC headspace vs. dilution factor) governed by the factors (hydrophobicity, volatility, etc) discussed previously.

For series [3] the following is noted: cited from earlier work.
Series [4] in a line: Critical micellization concentration (CMC) of surfactants. It is filed as physicochemical. The source says: As noted, the perfume burst is affected not only by the perfume properties, but also by properties of the formulation in which the perfume is found. Thus, the number and type of surfactant micelles found in a surfactant solution also has an effect. […] The critical micellization concentration is defined as the surfactant concentration at which micelles begin to form from unassociated surfactant monomers (M. J. Rosen, Surfactants and Interfacial Phenomena, 2nd Ed., 1989). Conversely, in a surfactant with low critical micelle concentration (e.g., one where micelles do form easily or, stated differently, don't break apart as readily once formed), a perfume, being generally more hydrophobic, tends to stay in the surfactant more readily. As a result, the perfume will tend not to “burst” (increase perfume headspace) as readily and, to achieve more headspace, more dilution may be required. The CMC of the surfactant system also affects “perfume burst”. Thus, for example, a surfactant system of relatively low CMC (e.g., sodium lauryl ether sulfate, also known as SLES) lowers the PBI and can greatly reduce the expected “perfume burst” on dilution. By contrast, surfactant system of relatively higher CMC (e.g., sodium laurate compared to SLES) would raise PBI and can thus increase “perfume burst” on dilution.

A short description of series [5]: Fragrance burst in shower liquids with different surfactant concentrations. It counts as physicochemical. The settings on record: sodium laurate at 5, 10, 15 (20) wt. % (FIG. 6).
A short description of series [6]: Fragrance burst in shower liquids with surfactants of different CMC. It is filed as physicochemical. The conditions noted are these: 5% sodium laureth sulfate (CMC=0.0011) vs 5% sodium laurate (CMC=0.005) (FIG. 8). As for the experimental part: Limonene and γ-Methyl Ionone were tested in two different shower liquid samples. One product was formulated with 5% sodium laurate (CMC=0.005 wt/wt) and the second with 5% sodium laureth sulfate (CMC=0.0011 wt/wt) (FIG. 8).

Where two headings read alike, the source gives them in different places. Marks after values point to notes of the source that are not given here.

Take `OCCOc1ccccc1` [2-Phenoxyethanol]: the fragrance burst entry in series [1] is listed as “no fragrance burst at all”. For `CC(=O)OCc1ccccc1` [Benzyl Acetate], in series [2], the “dilution behaviour of component (GC headspace)” value is recorded as “perfume headspaces decrease upon dilution”. In series [1], the fragrance burst entry is listed as “no fragrance burst at all”. Consider `CCCCCCCCCCCCOC(=O)CCS(=O)(=O)[O-].[Na+]` [C12H25OOC(CH2)2SO3^−Na^+ (SCI)], for which the “CMC (wt./wt.)” value in series [3] (30° C.) is listed as 0.00076* (30° C.) wt./wt. As to `CCCCCCCC(=O)NCCC[N+](C)(C)CC(=O)[O-]` [Caprylamidopropyl betaine], the “CMC (wt./wt.)” value in series [4] came out at 0.00032 wt./wt. Consider `C=C(C)[C@H]1CC=C(C)CC1` [Limonene], for which the “effect of surfactant concentration on fragrance burst” value (“effect of surfactant concentration” below) in series [5] is “maximum fragrance burst is reached with fewer dilutions in the 5% soap product”. The “effect of surfactant CMC on fragrance burst” value in series [6] is given as “lower overall fragrance burst”. In series [1], this compound came in with a fragrance burst of about 95%. For `CC(C)[C@@H]1CC[C@@H](C)CC1=O` [Menthone], in series [5], the “effect of surfactant concentration” value is on record as “maximum fragrance burst is reached with fewer dilutions in the 5% soap product”. Take `CCCCCCCCCCCC(=O)[O-].[Na+]` [Sodium laurate]: the CMC is recorded as 0.005 wt/wt in series [3] (Example 9) and 0.5 wt. % in series [3] (Example 11).

In the case of `CCC(C)(O)CCCC(C)C` (centres unmarked) [Tetrahydrolinolool], the fragrance burst in series [1] stood at 320%. Compound `Cc1ccc(C(C)C)cc1` [p-Cymene] gave a fragrance burst in series [1] of 120%. On to `CC(=O)/C=C/C1C(C)=CCCC1(C)C` (stereo not drawn) [α-ionone], for which the fragrance burst in series [1] was determined as 430%.

Compound `CC1=CCC2CC1C2(C)C` (stereo not drawn) [α-pinene] came in with a fragrance burst in series [1] of 50%. Take `CC(=O)/C(C)=C/C1C(C)=CCCC1(C)C` (centres unmarked) [γ-methyl ionone]: the “effect of surfactant concentration” value in series [5] is “maximum fragrance burst is reached with fewer dilutions in the 5% soap product”. For the same compound, the “effect of surfactant CMC on fragrance burst” value in series [6] is given as “lower overall fragrance burst”. Besides, the “dilution behaviour of component (GC headspace)” value in series [2] was “as high as seven times”. The fragrance burst in series [1] is 460%.

As to Sodium laureth sulfonate (2EO), the “CMC (wt./wt.)” value in series [3] (50° C.) is listed as 0.0011*** wt./wt. For the same compound, the CMC in series [3] (Example 9) is reported as 0.0011 wt/wt; in series [3] (Example 11), 0.1 wt. %.

Sodium laureth sulfonate (3EO): in series [3] (50° C.), the “CMC (wt./wt.)” value was 0.00084*** wt./wt.
